Reference: ChEMBL document CHEMBL3286266, “Development of novel benzomorpholine class of diacylglycerol acyltransferase I inhibitors” (ACS Med Chem Lett, 2014)
Converted amounts (≈) assume the structure as drawn. Each block holds one molecule with its values, some of them ahead of it. The source made the active and inactive calls. The calls are words filed in the database; no cut-off is given here.

Key:
Mus musculus [1] = assay: Reduction in triglycerides level in mouse at 10 mg/kg, po after 2 hrs by postprandial triglyceride assay; format: functional
Mus musculus [2] = assay: Reduction in triglycerides level in mouse at 3 mg/kg, po after 2 hrs by postprandial triglyceride assay; format: functional
[3] = target: T1, Sterol O-acyltransferase 2 (Homo sapiens, UniProt O75908); assay: Inhibition of human ACAT2 expressed in Sf9 insect cells using [14C]-oleoyl-CoA by scintillation counting analysis
T1 sequence (O75908 whole entry): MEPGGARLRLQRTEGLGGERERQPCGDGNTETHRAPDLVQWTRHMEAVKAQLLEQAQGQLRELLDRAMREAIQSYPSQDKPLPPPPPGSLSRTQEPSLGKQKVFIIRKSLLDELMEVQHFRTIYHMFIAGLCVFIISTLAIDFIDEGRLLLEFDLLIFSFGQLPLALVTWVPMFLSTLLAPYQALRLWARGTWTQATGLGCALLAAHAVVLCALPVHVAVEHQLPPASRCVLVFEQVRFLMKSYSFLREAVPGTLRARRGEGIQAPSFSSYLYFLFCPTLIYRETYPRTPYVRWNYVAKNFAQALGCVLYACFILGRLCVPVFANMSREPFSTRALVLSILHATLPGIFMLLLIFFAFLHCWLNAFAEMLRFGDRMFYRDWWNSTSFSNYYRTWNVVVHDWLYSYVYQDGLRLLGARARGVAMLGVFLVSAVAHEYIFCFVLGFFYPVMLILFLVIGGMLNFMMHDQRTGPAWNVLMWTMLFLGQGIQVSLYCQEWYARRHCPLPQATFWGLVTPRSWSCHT

[4] = AUC in rat at 10 mg/kg; format: ADME, organism-based; design: dose 10 mg/kg; conditions: plasma
[5] = target: T2, Diacylglycerol O-acyltransferase 2 (Homo sapiens) (UniProt Q96PD7); assay: (§1) Inhibition of human DGAT2 expressed in Sf9 insect cells using 1,2-dioleoyl-sn-glycerol and [14C]-palmitoyl-CoA substrate by scintillation counting analysis
T2 sequence (whole entry): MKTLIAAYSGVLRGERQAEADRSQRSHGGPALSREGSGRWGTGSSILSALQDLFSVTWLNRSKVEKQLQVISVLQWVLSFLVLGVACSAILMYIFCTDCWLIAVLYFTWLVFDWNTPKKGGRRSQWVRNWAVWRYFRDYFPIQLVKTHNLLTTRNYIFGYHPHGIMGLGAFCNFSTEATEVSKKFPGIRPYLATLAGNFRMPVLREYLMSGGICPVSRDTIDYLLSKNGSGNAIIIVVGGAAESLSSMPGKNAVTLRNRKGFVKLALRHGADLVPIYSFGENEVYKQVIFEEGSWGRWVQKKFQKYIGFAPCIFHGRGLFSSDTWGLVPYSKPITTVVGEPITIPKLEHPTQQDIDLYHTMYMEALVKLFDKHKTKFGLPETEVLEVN

[6] = Solubility of the compound; format: physicochemical
[7] = target: T3, Diacylglycerol O-acyltransferase 1 (Mus musculus, UniProt Q9Z2A7); assay: Inhibition of mouse DGAT1 expressed in Sf9 insect cells using 1,2-dioleoyl-sn-glycerol and [14C]-palmitoyl-CoA substrate by scintillation counting analysis
T3 sequence (Q9Z2A7 whole entry): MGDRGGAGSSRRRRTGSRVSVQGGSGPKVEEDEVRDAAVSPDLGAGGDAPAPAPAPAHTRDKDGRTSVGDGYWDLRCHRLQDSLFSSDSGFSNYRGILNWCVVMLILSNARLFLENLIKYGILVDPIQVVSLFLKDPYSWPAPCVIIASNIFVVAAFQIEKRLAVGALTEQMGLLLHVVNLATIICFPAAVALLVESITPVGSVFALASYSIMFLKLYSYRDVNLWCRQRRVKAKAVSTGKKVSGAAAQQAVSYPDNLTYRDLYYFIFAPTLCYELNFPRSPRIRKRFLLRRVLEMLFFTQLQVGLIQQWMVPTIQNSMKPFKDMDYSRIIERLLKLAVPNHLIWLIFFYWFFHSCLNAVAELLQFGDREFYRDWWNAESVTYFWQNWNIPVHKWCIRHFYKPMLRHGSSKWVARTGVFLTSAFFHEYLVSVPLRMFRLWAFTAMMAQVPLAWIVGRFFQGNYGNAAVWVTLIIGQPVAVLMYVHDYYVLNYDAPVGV

[8] = Permeability in human Caco2 cells; format: ADME, cell-based; conditions: Caco-2, read-out: permeability
Mus musculus [9] = assay: Reduction in triglycerides level in mouse at 1 mg/kg, po after 2 hrs by postprandial triglyceride assay; format: functional
[10] = Total AUC in rat at 10 mg/kg; format: ADME, organism-based; design: time AUCmax, dose 10 mg/kg; conditions: in vivo
Cytochrome P450 2C9 = Cytochrome P450 2C9 (Homo sapiens, UniProt P11712); assay: Inhibition of CYP2C9 (unknown origin)
Mus musculus [11] = assay: Reduction in triglycerides level in mouse at 0.3 mg/kg, po after 2 hrs by postprandial triglyceride assay; format: functional
[12] = AUC in mouse at 10 mg/kg; format: ADME, organism-based; design: dose 10 mg/kg; conditions: plasma
[13] = target: T4, Diacylglycerol O-acyltransferase 2 (Homo sapiens, UniProt Q96PD7); assay: as §1
T4 sequence (Q96PD7 whole entry): T2 sequence (whole entry)

[14] = target: T5, Sterol O-acyltransferase 1 (Homo sapiens, UniProt P35610); assay: Inhibition of human ACAT1 expressed in Sf9 insect cells using [14C]-oleoyl-CoA by scintillation counting analysis
T5 sequence (P35610 whole entry): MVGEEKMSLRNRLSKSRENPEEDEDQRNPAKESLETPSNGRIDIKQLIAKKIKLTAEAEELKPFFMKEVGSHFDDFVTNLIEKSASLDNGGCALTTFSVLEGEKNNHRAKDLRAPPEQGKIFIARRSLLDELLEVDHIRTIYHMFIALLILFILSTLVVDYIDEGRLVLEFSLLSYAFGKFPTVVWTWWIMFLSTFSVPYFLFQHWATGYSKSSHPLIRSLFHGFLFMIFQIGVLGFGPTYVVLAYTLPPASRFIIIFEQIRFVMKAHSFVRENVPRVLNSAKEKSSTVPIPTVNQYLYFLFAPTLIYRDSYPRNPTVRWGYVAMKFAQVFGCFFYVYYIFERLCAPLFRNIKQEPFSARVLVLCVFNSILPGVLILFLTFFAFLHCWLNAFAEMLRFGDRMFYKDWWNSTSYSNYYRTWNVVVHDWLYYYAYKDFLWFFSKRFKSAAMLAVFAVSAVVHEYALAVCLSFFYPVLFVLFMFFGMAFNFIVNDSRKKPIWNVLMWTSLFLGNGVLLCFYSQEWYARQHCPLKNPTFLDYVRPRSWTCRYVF

[15] = Cmax in rat; format: ADME, organism-based; conditions: in vivo
[16] = Tmax in rat; format: ADME, organism-based; conditions: in vivo
[17] = Solubility in plasma (unknown origin) at pH 7; format: ADME, cell-free
[18] = Total AUC in rat; format: ADME, organism-based; design: time AUCmax; conditions: in vivo

Chain of Cytochrome P450 2C9 (P11712 whole entry): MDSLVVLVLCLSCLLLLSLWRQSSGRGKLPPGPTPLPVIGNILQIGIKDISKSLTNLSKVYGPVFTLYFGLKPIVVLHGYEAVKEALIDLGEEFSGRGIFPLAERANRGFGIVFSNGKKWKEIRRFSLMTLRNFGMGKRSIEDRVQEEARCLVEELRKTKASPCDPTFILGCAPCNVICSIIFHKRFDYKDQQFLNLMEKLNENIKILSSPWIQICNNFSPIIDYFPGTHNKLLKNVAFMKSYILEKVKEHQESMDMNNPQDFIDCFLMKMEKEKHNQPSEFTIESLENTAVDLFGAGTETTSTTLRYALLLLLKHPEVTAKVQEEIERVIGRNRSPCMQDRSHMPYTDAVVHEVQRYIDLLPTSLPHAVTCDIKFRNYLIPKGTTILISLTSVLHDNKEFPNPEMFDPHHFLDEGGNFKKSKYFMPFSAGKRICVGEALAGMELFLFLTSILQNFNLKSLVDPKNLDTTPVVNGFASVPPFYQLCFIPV

- IC50 [3]: 9600 nM
- AUC [4]: 23 µM·h
- inhibition [5]: inactive
- solubility [6]: 100 µM (≈ 55.7 µg/mL)
- IC50 [7]: 35 nM
- Papp [8]: 23.9 ×10⁻⁶ cm/s
SMILES: O=C(O)C[C@H]1CC[C@H](c2ccc(-c3ccc4c(c3)OCCN4C(=O)Nc3ccc(F)cc3C(F)(F)F)cc2)CC1
- inhibition in vivo at 10 mg/kg (Mus musculus [1]): 91%
- inhibition in vivo at 3 mg/kg (Mus musculus [2]): 59%

- AUC [10]: 46 µM·h
- IC50 (Cytochrome P450 2C9): 500 nM
- IC50 [7]: 73 nM
SMILES: CCC1CN(C(=O)Nc2ccccc2)c2ccc(-c3ccc(OCC(C)(C)C(=O)O)nc3)cc2O1 (stereo unspecified)
- inhibition in vivo at 1 mg/kg (Mus musculus [9]): 100%
- inhibition in vivo at 0.3 mg/kg (Mus musculus [11]): 73%

- AUC [12]: 34 µM·h
- IC50 [3]: 2000 nM
- IC50 [13]: 10000 nM
- IC50 (Cytochrome P450 2C9): 14000 nM
- IC50 [7]: 18 nM
- IC50 [14]: 10000 nM
SMILES: C[C@@H]1CN(C(=O)Nc2ccccc2)c2ccc(-c3ccc([C@H]4CC[C@H](CC(=O)O)CC4)cc3)cc2O1

- Cmax [15]: 65 nM
- Tmax [16]: 2 h
- solubility [17]: 5 µM (≈ 2.46 µg/mL)
- AUC [18]: 0.195 µM·h
- IC50 [7]: 27 nM
- Papp [8]: 3.5 ×10⁻⁶ cm/s
SMILES: CCCCCCCNC(=O)N1CCOc2cc(-c3ccc([C@H]4CC[C@H](CC(=O)O)CC4)cc3)ccc21
- inhibition in vivo at 3 mg/kg (Mus musculus [2]): 48%
